Experimental data reported in patent publication US4968669A, “Parathyroid hormone antagonists” (Merck & Co., Inc., priority 1989, dated 1990).

Columns and labels:
[1] = target: T1, I^125 -labeled PTH binding to canine renal cortical membranes (Canis lupus familiaris, UniProt Q9TU31); assay: PTH binding assay (canine kidney)
T1 construct: from tissue; host or cells: canine renal cortex, membranes
T1 sequence (Q9TU31 29-595): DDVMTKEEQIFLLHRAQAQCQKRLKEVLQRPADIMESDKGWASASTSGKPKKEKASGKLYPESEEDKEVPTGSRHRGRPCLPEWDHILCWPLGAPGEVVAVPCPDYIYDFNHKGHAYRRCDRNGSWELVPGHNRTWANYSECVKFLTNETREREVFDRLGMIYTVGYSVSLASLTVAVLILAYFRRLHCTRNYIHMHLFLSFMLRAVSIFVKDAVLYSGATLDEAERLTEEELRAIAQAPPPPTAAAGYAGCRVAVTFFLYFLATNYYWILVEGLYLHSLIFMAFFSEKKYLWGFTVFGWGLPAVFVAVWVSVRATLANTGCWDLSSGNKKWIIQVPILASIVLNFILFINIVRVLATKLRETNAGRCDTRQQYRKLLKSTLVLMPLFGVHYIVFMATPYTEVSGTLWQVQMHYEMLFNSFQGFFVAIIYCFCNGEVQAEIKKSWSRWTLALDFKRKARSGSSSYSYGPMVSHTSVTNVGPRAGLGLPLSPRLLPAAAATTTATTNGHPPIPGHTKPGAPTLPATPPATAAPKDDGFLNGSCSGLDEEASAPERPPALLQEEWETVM

[2] = target: T2, I^125 -labeled PTH binding to rat osteosarcoma cell line ROS 17/2.8 (Rattus norvegicus, UniProt P25961); assay: PTH binding assay, ROS 17/2.8 cells
T2 construct: bone-derived rat osteosarcoma cell line ROS 17/2.8; endogenous in cells; host or cells: ROS 17/2.8 rat osteosarcoma cells
T2 sequence (P25961 27-591): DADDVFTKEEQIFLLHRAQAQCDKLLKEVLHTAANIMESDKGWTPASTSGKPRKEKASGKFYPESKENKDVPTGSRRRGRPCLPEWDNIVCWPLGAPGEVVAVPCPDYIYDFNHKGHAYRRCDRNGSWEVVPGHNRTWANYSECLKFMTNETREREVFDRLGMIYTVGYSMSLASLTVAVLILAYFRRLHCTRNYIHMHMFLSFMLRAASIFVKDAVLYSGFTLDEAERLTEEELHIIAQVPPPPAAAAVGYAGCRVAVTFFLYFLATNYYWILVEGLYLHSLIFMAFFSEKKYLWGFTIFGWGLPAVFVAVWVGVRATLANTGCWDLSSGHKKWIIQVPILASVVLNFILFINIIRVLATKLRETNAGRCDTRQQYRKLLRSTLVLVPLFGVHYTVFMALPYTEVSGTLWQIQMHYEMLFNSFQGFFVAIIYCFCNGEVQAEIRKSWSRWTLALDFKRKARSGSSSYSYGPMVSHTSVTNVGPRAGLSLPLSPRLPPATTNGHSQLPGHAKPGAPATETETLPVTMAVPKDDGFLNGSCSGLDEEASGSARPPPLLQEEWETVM

[3] = target: T3, I^125 -labeled PTH binding to human osteosarcoma cells (BIO) (Homo sapiens, UniProt Q03431); assay: PTH binding assay (human osteosarcoma cells)
T3 construct: endogenous in cells; host or cells: human osteosarcoma cells (BIO)
T3 sequence (Q03431 27-593): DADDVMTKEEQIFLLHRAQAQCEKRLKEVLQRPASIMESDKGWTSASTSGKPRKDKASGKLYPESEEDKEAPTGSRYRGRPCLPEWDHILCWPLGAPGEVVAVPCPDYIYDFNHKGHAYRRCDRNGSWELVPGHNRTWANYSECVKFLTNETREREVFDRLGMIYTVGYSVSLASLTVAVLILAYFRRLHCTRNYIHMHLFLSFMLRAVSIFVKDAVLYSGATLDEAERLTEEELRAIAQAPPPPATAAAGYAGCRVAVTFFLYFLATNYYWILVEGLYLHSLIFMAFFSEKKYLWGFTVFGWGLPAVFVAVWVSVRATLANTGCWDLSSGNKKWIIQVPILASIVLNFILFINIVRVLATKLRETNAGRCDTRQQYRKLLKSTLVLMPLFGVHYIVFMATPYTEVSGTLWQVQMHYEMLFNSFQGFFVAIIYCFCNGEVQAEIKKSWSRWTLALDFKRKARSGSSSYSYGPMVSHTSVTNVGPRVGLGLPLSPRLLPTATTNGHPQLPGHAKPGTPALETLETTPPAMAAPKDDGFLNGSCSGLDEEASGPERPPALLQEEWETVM
Excerpt: The results are as follows:

[4] = target: T4, PTH receptor in bovine renal cortical plasma membranes (Bos taurus, UniProt Q1LZF7); assay: PTH binding assay, bovine renal cortical plasma membranes, radioligand [Nle8,18,125I-Tyr34]bPTH(1-34)NH2; conditions: 30 min at 21° C
T4 construct: from tissue; host or cells: bovine renal cortex, plasma membranes
T4 sequence (Q1LZF7 29-589): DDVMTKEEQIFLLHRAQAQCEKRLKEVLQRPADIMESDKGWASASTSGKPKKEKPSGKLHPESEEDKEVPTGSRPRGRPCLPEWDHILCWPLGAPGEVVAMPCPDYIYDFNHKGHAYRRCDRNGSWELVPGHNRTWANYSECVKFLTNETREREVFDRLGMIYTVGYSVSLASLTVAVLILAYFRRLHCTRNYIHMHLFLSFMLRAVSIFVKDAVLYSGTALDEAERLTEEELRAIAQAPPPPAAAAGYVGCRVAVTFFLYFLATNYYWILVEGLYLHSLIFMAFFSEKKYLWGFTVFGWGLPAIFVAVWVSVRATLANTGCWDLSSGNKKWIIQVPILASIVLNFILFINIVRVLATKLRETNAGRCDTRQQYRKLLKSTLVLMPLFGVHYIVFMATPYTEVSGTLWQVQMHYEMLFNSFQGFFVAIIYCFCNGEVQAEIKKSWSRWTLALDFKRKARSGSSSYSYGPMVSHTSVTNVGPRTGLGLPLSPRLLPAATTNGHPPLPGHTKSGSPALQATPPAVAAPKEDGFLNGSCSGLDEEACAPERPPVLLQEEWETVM
Method: Bovine renal cortical plasma membranes were incubated with radioligand (25,000 cpm) in the absence or presence of PTH analogues in a Tris containing buffer (250 μl) for 30 min. at 21° C. Once equilibrium was reached, bound and free radioligand were separated by centrifugation.

SMILES	Ki [1] [nM]	Ki [2] [nM]	Ki [3] [nM]	Ki [4] [nM]
CSCC[C@H](NC(=O)[C@H](CO)NC(=O)[C@H](CO)NC(=O)[C@H](CC(C)C)NC(=O)[C@H](Cc1c[nH]cn1)NC(=O)[C@H](CCCCN)NC(=O)CNC(=O)[C@H](CC(C)C)NC(=O)[C@H](CC(N)=O)NC(=O)[C@H](Cc1c[nH]cn1)NC(=O)[C@H](CCSC)NC(=O)[C@@H](N)Cc1ccccc1)C(=O)N[C@@H](CCC(=O)O)C(=O)N[C@@H](CCCNC(=N)N)C(=O)N[C@H](C(=O)N[C@@H](CCC(=O)O)C(=O)N[C@@H](Cc1c[nH]c2ccccc12)C(=O)N[C@@H](CC(C)C)C(=O)N[C@@H](CCCNC(=N)N)C(=O)N[C@@H](CCCCN)C(=O)N[C@@H](CCCCN)C(=O)N[C@@H](CC(C)C)C(=O)N[C@@H](CCC(N)=O)C(=O)N[C@@H](CC(=O)O)C(=O)N[C@H](C(=O)N[C@@H](Cc1c[nH]cn1)C(=O)N[C@@H](CC(N)=O)C(=O)N[C@@H](Cc1ccc(O)cc1)C(N)=O)C(C)C)C(C)C [[Tyr^34]bPTH(7-34)NH2]	45.8 ± 11.3	700 ± 90	5.5 ± 1.6	76 ± 9
CCCC[C@H](NC(=O)[C@H](CO)NC(=O)[C@H](CO)NC(=O)[C@H](CC(C)C)NC(=O)[C@H](Cc1c[nH]cn1)NC(=O)[C@H](CCCCN)NC(=O)CNC(=O)[C@H](CC(C)C)NC(=O)[C@H](CC(N)=O)NC(=O)[C@H](Cc1c[nH]cn1)NC(=O)[C@H](CCCC)NC(=O)[C@@H](N)Cc1ccccc1)C(=O)N[C@@H](CCC(=O)O)C(=O)N[C@@H](CCCNC(=N)N)C(=O)N[C@H](C(=O)N[C@@H](CCC(=O)O)C(=O)N[C@@H](Cc1c[nH]c2ccccc12)C(=O)N[C@@H](CC(C)C)C(=O)N[C@@H](CCCNC(=N)N)C(=O)N[C@@H](CCCCN)C(=O)N[C@@H](CCCCN)C(=O)N[C@@H](CC(C)C)C(=O)N[C@@H](CCC(N)=O)C(=O)N[C@@H](CC(=O)O)C(=O)N[C@H](C(=O)N[C@@H](Cc1c[nH]cn1)C(=O)N[C@@H](CC(N)=O)C(=O)N[C@@H](Cc1ccc(O)cc1)C(N)=O)C(C)C)C(C)C [[Nle^8,18,Tyr^34]bPTH(7-34)NH2]		964 ± 170		145 ± 13
